Experimental data: US10335401B2, “Non-aromatic heterocyclic derivative having MGAT2 inhibitory activity” (Shionogi & Co., Ltd., priority 2015, dated 2019)

Biological target: recombinant human MGAT2 (Homo sapiens (Human), UniProt Q3SYC2)
Assay: Measurement of human MGAT2 inhibitory activity
Assay type: biochemical
Conditions: recombinant human MGAT2 membrane fraction (Sf-9); 2-Oleoylglycerol and Oleoyl-CoA substrates; 1 hour at room temperature; Diolein detected by RapidFire Q-TOF MS
From the text: A full-length human MGAT2 gene to which a Flag-tag had been added at the N-terminal was inserted into pFastBac (from Invitrogen). A recombinant baculovirus was produced in accordance with the protocol for a Bac-to-Bac baculovirus expression system (produced by Invitrogen), and Sf-9 cells were infected therewith. The cells were collected and sonicated, and then the membrane fraction was collected through centrifugation.
Solutions of the compounds of the present invention in DMSO were each aliquoted into 0.2-μL portions in a 384-well polystyrene microplate produced by Corning Incorporated, and 5 μL of an enzyme solution prepared with an assay buffer (100 mmol/L phosphate buffer (pH 7.4) containing 2 mmol/L DTT) and 5 μL of a substrate solution (100 mmol/L phosphate buffer (pH 7.4), 30 μmol/L 2-Oleoylglycerol, 10 μmol/L Oleoyl-CoA) were added thereto, and the resultant was stirred and centrifuged, and incubated in a moist chamber at room temperature for 1 hour. […] Diolein as a reaction product (P) of 2-Oleoylglycerol as the substrate and an ammonium adduct ion of the IS were detected, and the peak intensity ratio, P/IS, was calculated from the peak heights to evaluate the inhibitory activity. […] The inhibitory activity was calculated from the formula below with TIBCO Spotfire (produced by TIBCO Software Inc.): Inhibitory activity (%)=[1−{Sample−Control(−)}/{Control(+)−Control(−))}]*100 where Sample indicates a peak intensity ratio: P/IS, when the compound of the present invention was added.

recombinant human MGAT2, sequence (Q3SYC2 whole entry): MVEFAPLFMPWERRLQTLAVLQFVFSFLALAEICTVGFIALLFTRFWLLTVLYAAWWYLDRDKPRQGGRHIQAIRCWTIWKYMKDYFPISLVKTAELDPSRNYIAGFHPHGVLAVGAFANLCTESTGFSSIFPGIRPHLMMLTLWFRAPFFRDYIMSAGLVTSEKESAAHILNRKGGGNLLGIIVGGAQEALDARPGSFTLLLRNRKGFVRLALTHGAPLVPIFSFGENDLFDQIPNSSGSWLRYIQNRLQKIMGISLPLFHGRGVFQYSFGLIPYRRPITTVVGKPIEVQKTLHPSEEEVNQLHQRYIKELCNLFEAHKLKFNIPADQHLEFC

SMILES | IC50
COc1ccc(C2=C(CNC(C)=O)C(=O)N[C@@](c3ccc(OCCCC(F)(F)F)cc3)(C(F)(F)F)C2)nc1 (racemic) [Compound I-11] | 110 nM
CS(=O)(=O)CC(=O)NCC1=C(c2ccc(C(F)F)cn2)CC(c2cnn(CCCC(F)(F)F)c2)(C(F)(F)F)NC1=O (racemic) [Compound I-110] | 91 nM
Cc1ccc(C2=C(CNS(C)(=O)=O)C(=O)N[C@@](c3ccc(OCCCC(F)(F)F)cc3)(C(F)(F)F)C2)cc1 [Compound I-1] | 21 nM
Cc1ccc(C2=C(CNS(C)(=O)=O)C(=O)N[C@@](c3ccc(OCCCC(F)(F)F)cc3)(C(F)(F)F)C2)nc1 [Compound I-3] | 120 nM
CC(=O)NCC1=C(c2ccc(C)cn2)C[C@](c2ccc(OCCCC(F)(F)F)cc2)(C(F)(F)F)NC1=O [Compound I-4] | 32 nM
Cc1ccc(C2=C(CNS(N)(=O)=O)C(=O)N[C@@](c3ccc(OCCCC(F)(F)F)cc3)(C(F)(F)F)C2)nc1 [Compound I-5] | 230 nM
Cc1ccc(C2=C(CNC(N)=O)C(=O)N[C@@](c3ccc(OCCCC(F)(F)F)cc3)(C(F)(F)F)C2)nc1 [Compound I-6] | 120 nM
COC(=O)NCC1=C(c2ccc(C)cn2)C[C@](c2ccc(OCCCC(F)(F)F)cc2)(C(F)(F)F)NC1=O [Compound I-7] | 150 nM
Cc1ccc(C2=C(CNC(=O)C3CC3)C(=O)N[C@@](c3ccc(OCCCC(F)(F)F)cc3)(C(F)(F)F)C2)nc1 [Compound I-8] | 13 nM
CC(=O)NCC1=C(c2ccc(CO)cn2)C[C@](c2ccc(OCCCC(F)(F)F)cc2)(C(F)(F)F)NC1=O [Compound I-9] | 29 nM
Cc1ccc(C2=C(CNC(=O)CS(C)(=O)=O)C(=O)N[C@@](c3ccc(OCCCC(F)(F)F)cc3)(C(F)(F)F)C2)nc1 [Compound I-10] | < 4.6 nM
COc1ccc(C2=C(CNC(=O)CS(C)(=O)=O)C(=O)N[C@@](c3ccc(OCCCC(F)(F)F)cc3)(C(F)(F)F)C2)nc1 [Compound I-12] | 2.5 nM
COc1ccc(C2=C(CNC(=O)CC(F)(F)F)C(=O)N[C@@](c3ccc(OCCCC(F)(F)F)cc3)(C(F)(F)F)C2)nc1 [Compound I-13] | 3.3 nM
COc1ccc(C2=C(CNC(=O)C(C)C)C(=O)N[C@@](c3ccc(OCCCC(F)(F)F)cc3)(C(F)(F)F)C2)nc1 [Compound I-14] | 8 nM
COc1ccc(C2=C(CNC(=O)C3CCC3)C(=O)N[C@@](c3ccc(OCCCC(F)(F)F)cc3)(C(F)(F)F)C2)nc1 [Compound I-15] | 10 nM
COc1ccc(C2=C(CNC(=O)CC(C)(C)C)C(=O)N[C@@](c3ccc(OCCCC(F)(F)F)cc3)(C(F)(F)F)C2)nc1 [Compound I-16] | 52 nM
COc1ccc(C2=C(CNC(=O)c3ccno3)C(=O)N[C@@](c3ccc(OCCCC(F)(F)F)cc3)(C(F)(F)F)C2)nc1 [Compound I-17] | 7.6 nM
COc1ccc(C2=C(CNS(C)(=O)=O)C(=O)N[C@@](c3ccc(OCCCC(F)(F)F)cc3)(C(F)(F)F)C2)nc1 [Compound I-18] | 330 nM
COc1ccc(C2=C(CNS(=O)(=O)CC(F)(F)F)C(=O)N[C@@](c3ccc(OCCCC(F)(F)F)cc3)(C(F)(F)F)C2)nc1 [Compound I-19] | 240 nM
COc1ccc(C2=C(CNS(=O)(=O)CC#N)C(=O)N[C@@](c3ccc(OCCCC(F)(F)F)cc3)(C(F)(F)F)C2)nc1 [Compound I-20] | 35 nM
COc1ccc(C2=C(CNS(=O)(=O)C3CCOCC3)C(=O)N[C@@](c3ccc(OCCCC(F)(F)F)cc3)(C(F)(F)F)C2)nc1 [Compound I-22] | 200 nM
COc1ccc(C2=C(CNS(=O)(=O)c3ccccc3)C(=O)N[C@@](c3ccc(OCCCC(F)(F)F)cc3)(C(F)(F)F)C2)nc1 [Compound I-23] | 750 nM

SMILES | IC50
COc1ccc(C2=C(CNC(=O)C3CC(=O)C3)C(=O)N[C@@](c3ccc(OCCCC(F)(F)F)cc3)(C(F)(F)F)C2)nc1 [Compound I-24] | 40 nM
Cc1ccc(C2=C(CNC(=O)CC(F)(F)F)C(=O)N[C@@](c3ccc(OCCCC(F)(F)F)cc3)(C(F)(F)F)C2)nc1 [Compound I-26] | 2.3 nM
Cc1ccc(C2=C(CNC(=O)c3ccno3)C(=O)N[C@@](c3ccc(OCCCC(F)(F)F)cc3)(C(F)(F)F)C2)nc1 [Compound I-27] | 2.2 nM
Cc1ccc(C2=C(CNS(=O)(=O)CC#N)C(=O)N[C@@](c3ccc(OCCCC(F)(F)F)cc3)(C(F)(F)F)C2)nc1 [Compound I-28] | 100 nM
Cc1ccc(C2=C(CNC(=O)C3CS(=O)(=O)C3)C(=O)N[C@@](c3ccc(OCCCC(F)(F)F)cc3)(C(F)(F)F)C2)nc1 [Compound I-29] | 18 nM
Cc1ccc(C2=C(CNC(=O)CC#N)C(=O)N[C@@](c3ccc(OCCCC(F)(F)F)cc3)(C(F)(F)F)C2)nc1 [Compound I-30] | 12 nM
Cc1ccc(C2=C(CNC(=O)CO)C(=O)N[C@@](c3ccc(OCCCC(F)(F)F)cc3)(C(F)(F)F)C2)nc1 [Compound I-31] | 70 nM
COc1ccc(C2=C(CNC(=O)NC(C)C)C(=O)N[C@@](c3ccc(OCCCC(F)(F)F)cc3)(C(F)(F)F)C2)nc1 [Compound I-32] | 97 nM
COc1ccc(C2=C(CNC(=O)OC(C)C)C(=O)N[C@@](c3ccc(OCCCC(F)(F)F)cc3)(C(F)(F)F)C2)nc1 [Compound I-33] | 340 nM
CC(=O)NCC1=C(c2ccc(C(C)C)cn2)C[C@](c2ccc(OCCCC(F)(F)F)cc2)(C(F)(F)F)NC1=O [Compound I-35] | 18 nM
COc1ccc(C2=C(CNC(=O)C3COC3)C(=O)N[C@@](c3ccc(OCCCC(F)(F)F)cc3)(C(F)(F)F)C2)nc1 [Compound I-36] | 53 nM
COc1ccc(C2=C(CNC(=O)CC#N)C(=O)N[C@@](c3ccc(OCCCC(F)(F)F)cc3)(C(F)(F)F)C2)nc1 [Compound I-37] | 28 nM
COc1ccc(C2=C(CNC(=O)C(C)(C)C#N)C(=O)N[C@@](c3ccc(OCCCC(F)(F)F)cc3)(C(F)(F)F)C2)nc1 [Compound I-38] | 17 nM
COc1ccc(C2=C(CNC(=O)C3(C#N)CC3)C(=O)N[C@@](c3ccc(OCCCC(F)(F)F)cc3)(C(F)(F)F)C2)nc1 [Compound I-39] | 91 nM
COc1ccc(C2=C(CNC(=O)CO)C(=O)N[C@@](c3ccc(OCCCC(F)(F)F)cc3)(C(F)(F)F)C2)nc1 [Compound I-40] | 43 nM
COc1ccc(C2=C(CNC(=O)C(C)(C)O)C(=O)N[C@@](c3ccc(OCCCC(F)(F)F)cc3)(C(F)(F)F)C2)nc1 [Compound I-41] | 75 nM
CC(=O)NCC1=C(c2ccc(C(C)(C)O)cn2)C[C@](c2ccc(OCCCC(F)(F)F)cc2)(C(F)(F)F)NC1=O [Compound I-42] | 10 nM
CC(C)c1ccc(C2=C(CNC(=O)CS(C)(=O)=O)C(=O)N[C@@](c3ccc(OCCCC(F)(F)F)cc3)(C(F)(F)F)C2)nc1 [Compound I-43] | < 1 nM
CC(C)c1ccc(C2=C(CNC(=O)C3CS(=O)(=O)C3)C(=O)N[C@@](c3ccc(OCCCC(F)(F)F)cc3)(C(F)(F)F)C2)nc1 [Compound I-44] | 9.2 nM
CC(C)c1ccc(C2=C(CNC(=O)C(C)(C)C#N)C(=O)N[C@@](c3ccc(OCCCC(F)(F)F)cc3)(C(F)(F)F)C2)nc1 [Compound I-45] | 4.4 nM
COc1ccc(C2=C(CNC(=O)C3CS(=O)(=O)C3)C(=O)N[C@@](c3ccc(OCCCC(F)(F)F)cc3)(C(F)(F)F)C2)nc1 [Compound I-46] | 62 nM
CC(C)(O)c1ccc(C2=C(CNC(=O)CS(C)(=O)=O)C(=O)N[C@@](c3ccc(OCCCC(F)(F)F)cc3)(C(F)(F)F)C2)nc1 [Compound I-47] | 0.73 nM
